Measurements from patent publication US20240374692A1, “A NOVEL ACYLATED INSULIN ANALOG” (SUNSHINE LAKE PHARMA CO., LTD., priority 2021, published 2024).
Like-named read-outs stand apart in the source and are kept apart here.

Columns and labels:
[1] = target: T1, insulin receptor B (Homo sapiens, UniProt P06213); experiment: Insulin receptor B autophosphorylation in transfected cells (Cisbio Phospho-IR beta Tyr1150/1151 kit); format: cell-based; conditions: for Relative HI activity: relative to human insulin
T1 construct: expressed in transfected cells
Protocol: The phosphorylation level of insulin receptor B was detected by Cisbio's Phospho-IR beta (Tyr1150/1151) kit method to evaluate the biological activity of insulin. The cells were seeded into a 96-well plate overnight, and after the serum in the medium was removed, 40 μl of serum-free medium was added to culture for about 4 h. Then a dilution series of insulin derivatives were prepared with blank solution (0.6% casein, 0.06 mg/mL EDTA, 1×DPBS) and incubated with cells in the 96-well plate for 5 min in a CO2 incubator (37° C., 5% CO2). The liquid in the 96-well plate was poured off, 100 µL of a mixture of lysis buffer (2% Triton X-100, 150 mM NaCl, 50 mM HEPES, pH=7) and inhibitor (Blocking Reagent in the kit) was added to lyse the cells, then the plate was shaken at 350 rpm for 30 min. Relative activity (in percent (%)) was assessed by measuring insulin receptor phosphorylation levels in the supernatant after cell lysis and fitting a curve to the data using nonlinear regression in Graphpad Prism 5 software. Related assays were also used, in which the blank solution also contained 1.5% HSA to simulate physiological conditions. Changes in the phosphorylation levels of the insulin-activated insulin receptors of the invention were detected as an indirect reflection of the albumin binding activity.

[2] = test system: normal C57BL/6 mice; experiment: Hypoglycemic effect, single subcutaneous administration to normal C57BL/6 mice; format: in vivo; set-up: blood glucose: unit not given here; conditions: for blood glucose: Mean ± SEM, n = 6
Protocol: SPF grade C57BL/6 mice were reared in a suitable rearing box in a barrier environment, with a rearing temperature of 20-26° C., a humidity of 40-70%, a time between day and night of 12 h/12 h, and the mice had free access to standard food and autoclaved sterilization water. After a 3-day quarantine period and a 2-day acclimation period, random blood glucose was measured and mice were weighed. Mice were divided into 6 groups according to random blood glucose and body weight.
Single subcutaneous administration (S.C.) was used to administer the corresponding vehicle or drug. The control group was administered the vehicle PBS without fasting during the whole process, and the animals were allowed to eat and drink freely. Random blood glucose values of C57 mice were measured before administration and at 0.25, 0.5, 1, 2, 4, 6, 8, 10, 24, 48, 54, 72 and 96 hours after administration.
(§1) All raw data were entered into Excel files and expressed as Mean±SEM. Statistical analysis of data was performed using Graphpad Prism 7.0 software, one-way or two-way ANOVA comparison method, and P<0.05 was used as the criterion for significant differences.

[3] = test system: STZ-induced type I diabetes mellitus (T1DM) C57BL/6 mice; experiment: Hypoglycemic effect, repeated administration (three times) to STZ-induced T1DM C57BL/6 mice (Example 6); format: in vivo; set-up: key to random blood glucose: blood glucose in mmol/L; conditions: for random blood glucose: 500 nmol/Kg S.C. three times, Mean ± SEM, n = 7
Protocol: SPF grade C57BL/6 mice were reared in a suitable rearing box in a barrier environment, with a rearing temperature of 20-26° C., a humidity of 40-70%, a time between day and night of 12 h/12 h, and the mice had free access to standard food and autoclaved sterilization water. After the 3-day quarantine period and the 2-day acclimation period, the mice were fasted for 12 h, and the mice were injected intraperitoneally with streptozotocin solution (STZ, 13 mg/mL, in citrate buffer) at 130 mg/kg. 3 Days and 7 days after administration of streptozotocin, random blood glucose and fasting blood glucose were detected, and the random blood glucose value above 25 mmol/L and fasting blood glucose value above 11.1 mmol/L were selected as T1DM model mice for follow-up experiments. On the day before administration, random blood glucose was monitored and mice were weighed. Mice were divided into 6 groups according to random blood glucose and body weight.
Subcutaneous administration (S.C.) was used to administer the corresponding vehicle or drug, once every 4-5 days, for a total of 3 administrations. During the experiment, the animals were allowed to eat and drink water freely. The random blood glucose before the first administration, and 0.25, 0.5, 1, 2, 4, 6, 8, 10, 24, 48, 72, and 96 h after administration were assessed, as well as the random blood glucose before the second and third administration, and 0.5, 1, 2, 6, 24, 48, 72, 96 and 120 h after administration.
as §1

[4] = rat, in vivo, sc, 10 nmol/kg
[5] = dog, in vivo, iv, 10 nmol/kg
Protocol: Two beagle dogs, one in each group, a double-cycle crossover design was used, with a washout period of 1 week, and a single dose of 10 nmol/kg of Icodec or Insulin-a10 was administered to the lateral small saphenous vein of the hind limb in each cycle, the blood was collected and plasma was centrifuged at 0.083, 0.25, 0.5, 1, 2, 6, 8, 24, 30, 48, 72 and 96 h after administration, the concentration of Icodec or Insulin-a10 in the plasma was detected.

[6] = single S.C., Degludec 200 nmol/Kg, others 1400 nmol/Kg

T1 sequence (P06213 28-758 limits assumed): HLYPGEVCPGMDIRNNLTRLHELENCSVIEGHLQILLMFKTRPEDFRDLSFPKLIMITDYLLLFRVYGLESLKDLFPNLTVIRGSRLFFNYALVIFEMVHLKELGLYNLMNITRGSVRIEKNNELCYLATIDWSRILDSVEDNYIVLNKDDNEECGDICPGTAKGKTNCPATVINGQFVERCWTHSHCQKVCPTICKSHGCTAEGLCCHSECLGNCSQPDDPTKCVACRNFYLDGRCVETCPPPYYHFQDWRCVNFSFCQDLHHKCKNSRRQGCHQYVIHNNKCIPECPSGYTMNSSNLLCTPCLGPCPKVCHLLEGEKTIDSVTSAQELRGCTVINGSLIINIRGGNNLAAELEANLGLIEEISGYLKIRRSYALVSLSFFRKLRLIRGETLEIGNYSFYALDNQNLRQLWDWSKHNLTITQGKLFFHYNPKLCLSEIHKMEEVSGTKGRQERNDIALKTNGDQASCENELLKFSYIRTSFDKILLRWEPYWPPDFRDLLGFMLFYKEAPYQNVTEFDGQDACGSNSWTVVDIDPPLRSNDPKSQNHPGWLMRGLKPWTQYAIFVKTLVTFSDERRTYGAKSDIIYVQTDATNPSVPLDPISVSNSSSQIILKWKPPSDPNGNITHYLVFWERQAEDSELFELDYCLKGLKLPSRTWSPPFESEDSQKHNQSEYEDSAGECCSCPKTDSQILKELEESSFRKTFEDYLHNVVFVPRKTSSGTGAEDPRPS
T1 sequence (P06213 763-1382 partner limits assumed): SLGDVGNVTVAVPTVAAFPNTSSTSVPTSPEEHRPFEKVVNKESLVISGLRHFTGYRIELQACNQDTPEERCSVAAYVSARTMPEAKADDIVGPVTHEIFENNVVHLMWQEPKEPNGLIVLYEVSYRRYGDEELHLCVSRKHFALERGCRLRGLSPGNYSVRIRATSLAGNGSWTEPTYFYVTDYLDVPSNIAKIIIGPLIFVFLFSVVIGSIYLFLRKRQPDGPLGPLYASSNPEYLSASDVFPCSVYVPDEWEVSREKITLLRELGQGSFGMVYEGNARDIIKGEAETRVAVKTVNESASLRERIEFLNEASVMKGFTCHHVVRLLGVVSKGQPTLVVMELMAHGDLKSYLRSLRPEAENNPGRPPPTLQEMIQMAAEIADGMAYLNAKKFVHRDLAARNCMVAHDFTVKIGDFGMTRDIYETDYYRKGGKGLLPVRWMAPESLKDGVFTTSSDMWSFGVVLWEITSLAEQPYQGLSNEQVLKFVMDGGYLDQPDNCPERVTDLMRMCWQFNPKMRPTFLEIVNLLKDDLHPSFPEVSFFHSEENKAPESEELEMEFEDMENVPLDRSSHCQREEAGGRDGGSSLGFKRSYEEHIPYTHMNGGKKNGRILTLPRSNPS

A14E, B16H, B25H, B29K(N(ε)-COOH(CH2)18CO-L-Lys-CO(CH2)2CO—(OEG)2), desB30 human insulin analog [Insulin-a10]
EC50 ([1]; 0% HSA): 85.5 nM | Relative HI activity ([1]; 0% HSA): 1.44% | EC50 ([1]; 1.5% HSA): 1310 nM | Relative 0% HSA activity ([1]; 1.5% HSA relative to 0% HSA): 6.52% | Relative HI activity ([1]; 1.5% HSA): 0.20% | blood glucose ([2]; 0 h (before administration), single S.C., Degludec 200 nmol/Kg, others 1400 nmol/Kg): 9.1 ± 1.5 | blood glucose ([2]; 0.25 h after single S.C., Degludec 200 nmol/Kg, others 1400 nmol/Kg): 7.9 ± 1.5 | blood glucose compared with the control group ([2]; 1 h after single S.C. administration): decreased significantly | blood glucose ([2]; 1 h after single S.C., Degludec 200 nmol/Kg, others 1400 nmol/Kg): 4.4 ± 0.6 | blood glucose ([2]; 2 h after single S.C., Degludec 200 nmol/Kg, others 1400 nmol/Kg): 4.4 ± 1.3 | blood glucose ([2]; 4 h after single S.C., Degludec 200 nmol/Kg, others 1400 nmol/Kg): 3.7 ± 1.0 | blood glucose ([2]; 6 h after single S.C., Degludec 200 nmol/Kg, others 1400 nmol/Kg): 3.5 ± 1.1 | blood glucose ([2]; 8 h after single S.C., Degludec 200 nmol/Kg, others 1400 nmol/Kg): 3.1 ± 1.0 | blood glucose ([2]; 10 h after single S.C., Degludec 200 nmol/Kg, others 1400 nmol/Kg): 2.8 ± 0.7 | blood glucose ([2]; 24 h after single S.C., Degludec 200 nmol/Kg, others 1400 nmol/Kg): 2.1 ± 0.7 | blood glucose ([2]; 48 h after single S.C., Degludec 200 nmol/Kg, others 1400 nmol/Kg): 1.7 ± 0.6 | blood glucose ([2]; 72 h after single S.C., Degludec 200 nmol/Kg, others 1400 nmol/Kg): 1.8 ± 0.1 | blood glucose ([2]; 96 h after single S.C., Degludec 200 nmol/Kg, others 1400 nmol/Kg): 4.0 ± 4.0 | effect on blood glucose control compared with Icodec ([2]; single S.C. 1400 nmol/Kg): consistent with the trend of Icodec and can be maintained for a longer time | effective blood glucose control time [2, 6]: more than 96 h | time after administration at which blood glucose reached the lowest level [2, 6]: 72 h | time after administration at which blood glucose returned to normal [2, 6]: > 96 h | effective glucose control time ([3]; 500 nmol/Kg S.C.): 120 h | random blood glucose ([3]; Day 0 (1st)): 32.0 ± 1.7 | random blood glucose ([3]; Day 1): 19.7 ± 6.6 | random blood glucose ([3]; Day 4 (2nd)): 27.6 ± 4.4 | random blood glucose ([3]; Day 5): 15.2 ± 8.9 | random blood glucose ([3]; Day 9 (3rd)): 26.6 ± 5.7 | random blood glucose ([3]; Day 10): 11.7 ± 9.4 | random blood glucose ([3]; Day 14): 26.1 ± 6.2 | time after administration at which blood glucose returned to normal level ([3]; 500 nmol/Kg S.C., after the first administration): 96 h | time after administration at which blood glucose returned to normal level ([3]; 500 nmol/Kg S.C., after the second and third administrations): 120 h | time after each administration at which blood glucose reached the lowest level ([3]; Icodec 250, 500 and 1000 nmol/kg, Insulin-a3 and Insulin-a10 500 nmol/Kg): 24 h | glucose control effect compared with the Icodec-1000 nmol/kg group ([3]; test drug 500 nmol/Kg S.C.): equivalent | AUClast [4]: 9350 ng·h/mL | MRTINF_obs [4]: 29.2 h | T1/2 [4]: 17.2 h | AUClast [5]: 28300 ± 3500 ng·h/mL | T1/2 [5]: 46 ± 10.8 h
